The record followed here is US11414459B2 (Kinoxis Therapeutics Pty Ltd, priority 2017, dated 2022).

The target in experiment [1] is T1, V1aR (V1a receptor) (Homo sapiens, UniProt P37288).
T1 construct: expressed in transfected cells; host or cells: HEK293
Put plainly: Competition radioligand binding assay, [3H]-vasopressin displacement. To be noted: membranes from V1a receptor-expressing HEK293 cells, [3H]-vasopressin 2 nM. The protocol:
(§1) Competition Radioligand Binding Assay Experimental Procedures
(§2) Reactions were incubated for 90 min at 4 C to reach equilibrium, and terminated by rapid filtration over glass fibre filters (Whatman GF/A […]), and washing with ice-cold reaction buffer. Radioactivity was detected after soaking filters in Microscint 0 using a Microbeta2 2450 microplate-reader (Perkin Elmer).

In experiment [2] the target is T1, V1aR (V1a receptor). Nature of the experiment: HTRF-IP1 accumulation assay, agonist assessment. The format is cell-based. Particulars: for EC50: V1a receptor-expressing HEK293 cells, IP1 accumulation, 1 h incubation. The protocol:
HTRF-IP1 Accumulation Assay Experimental Procedures
OT or V1a receptor-expressing HEK293 cells were seeded onto clear, poly-L-lysine (100 μg/mL)-coated 384 well plates at a density of 8.75×10^3 cells per well. Levels of receptor activation induced by compounds were assessed at concentrations ranging from 1 nM to 100 μM using the HTRF IP-One kit (CisBio International, Bagnolssur-Cze, France), according to manufacturers protocol. For agonist assessment, cells were incubated with compounds for 1 h prior to the addition of Ab-Cryptate and IP1-d2. The ligand concentration that induced a 50% maximal response (EC50) was used to evaluate functional effects across compounds. […] Cells were then incubated for a further 1 h, and Ab-Cryptate and IP1-d2 added.
(In general: Time-resolved FRET reads energy transfer from a long-lived donor to a nearby acceptor.)

In experiment [3] the target is T1, V1aR (V1a receptor). Put plainly: HTRF-IP1 accumulation assay, antagonist assessment. The format is cell-based. To be noted: against EC70 concentration of vasopressin.
A further experiment concerns OXTR or V1aR receptors. Nature of the experiment: Activity/selectivity at OXTR or V1aR receptors stated in words. To be noted: OXTR over V1aR.
For experiment [4], the target named is T2, OXTR (OT receptor) (Homo sapiens, UniProt P30559).
T2 sequence (P30559 1-389): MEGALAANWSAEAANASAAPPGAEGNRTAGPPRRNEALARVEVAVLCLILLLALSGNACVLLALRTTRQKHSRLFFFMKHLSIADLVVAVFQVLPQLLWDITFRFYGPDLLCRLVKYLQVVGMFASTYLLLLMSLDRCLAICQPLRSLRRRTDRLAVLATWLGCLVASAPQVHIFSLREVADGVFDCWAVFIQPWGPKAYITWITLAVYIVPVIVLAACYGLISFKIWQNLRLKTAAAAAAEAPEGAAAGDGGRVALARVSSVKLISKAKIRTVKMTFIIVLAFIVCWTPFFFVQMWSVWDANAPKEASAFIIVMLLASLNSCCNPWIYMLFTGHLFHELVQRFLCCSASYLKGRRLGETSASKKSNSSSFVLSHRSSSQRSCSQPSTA
Nature of the experiment: cell-based. Particulars: for Emax: read-out: Emax (% OXT).

Experiment [5] concerns the target T2, OXTR (OT receptor). Nature of the experiment: Competition radioligand binding assay, [3H]-oxytocin displacement. Also on record: expressed in transfected cells; host or cells: HEK293. Particulars: membranes from OT receptor-expressing HEK293 cells, [3H]-oxytocin 10 nM. As for the experimental part:
as §1, §2

Experiment [6] has as its target T2, OXTR (OT receptor). Put plainly: HTRF-IP1 accumulation assay, antagonist assessment. Also noted: expressed in transfected cells; host or cells: HEK293. The experiment is classed as cell-based.

For orientation: Ki means the equilibrium dissociation constant of an inhibitor or competing ligand from its target. A lower Ki goes with higher affinity. By EC50 is commonly meant the midpoint of the concentration-response curve. A higher EC50 goes with a less potent agent. What is called IC50 is the concentration at which inhibition is half-maximal. What is called Emax is the maximal effect, on the per cent scale that the assay sets.

Where a SMILES comes first, the peptide text is derived from it. Bridges are numbered along the chain shown (N, C = ends).

T1 sequence (P37288 whole entry, species assumed): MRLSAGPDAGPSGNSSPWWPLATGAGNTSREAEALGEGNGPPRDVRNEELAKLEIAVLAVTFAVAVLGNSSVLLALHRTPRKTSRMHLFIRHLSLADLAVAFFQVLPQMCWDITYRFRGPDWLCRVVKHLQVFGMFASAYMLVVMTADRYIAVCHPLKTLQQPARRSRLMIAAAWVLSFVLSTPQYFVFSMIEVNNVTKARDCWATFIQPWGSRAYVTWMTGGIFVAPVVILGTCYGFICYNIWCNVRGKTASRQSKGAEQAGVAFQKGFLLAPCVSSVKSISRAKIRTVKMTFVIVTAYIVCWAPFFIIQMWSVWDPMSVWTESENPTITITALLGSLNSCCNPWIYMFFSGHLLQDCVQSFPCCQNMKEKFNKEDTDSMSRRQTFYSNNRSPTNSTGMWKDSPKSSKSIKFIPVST

Consider `CC[C@H](C)[C@@H]1NC(=O)[C@H](Cc2ccc(O)cc2)NC(=O)[C@@H](N)CSSC[C@@H](C(=O)N2CCC[C@H]2C(=O)N[C@@H](CC(C)C)C(N)=O)NC(=O)[C@H](CC(N)=O)NC(=O)[C@H](CCC(N)=O)NC1=O` [Metabolite A] (H-CYIQNCPL-NH2; disulfide 1-6), for which the Ki on V1aR (V1a receptor) [1] came to 749 nM; on OXTR (OT receptor) [5] it was 138 nM. For the same molecule, the EC50 at V1aR (V1a receptor) [2] is > 10000 nM; on OXTR (OT receptor) [4], 274 nM. Moreover, the IC50 at V1aR (V1a receptor) [3] and at OXTR (OT receptor) [6] was > 10000 nM throughout. For the same molecule, in the experiment with OXTR or V1aR receptors, the “selectivity and activity compared with oxytocin” value was “enhanced selectivity and activity”. Also, on OXTR (OT receptor) [4], the Emax amounted to 79.2%.

For the molecule `CC[C@H](C)[C@@H]1NC(=O)[C@H](Cc2ccc(O)cc2)NC(=O)[C@@H](N)CSSC[C@@H](C(=O)N2CCC[C@H]2C(N)=O)NC(=O)[C@H](CC(N)=O)NC(=O)[C@H](CCC(N)=O)NC1=O` [Metabolite B] (H-CYIQNCP-NH2; disulfide 1-6), the results for the Ki at V1aR (V1a receptor) [1] and at OXTR (OT receptor) [5] were 105 nM and 72.6 nM, respectively. The EC50 at V1aR (V1a receptor) [2] is > 10000 nM; at OXTR (OT receptor) [4], 110 nM. In addition, the IC50 on V1aR (V1a receptor) [3] and at OXTR (OT receptor) [6] was > 10000 nM each time. For the same molecule, in the experiment on OXTR or V1aR receptors, the “selectivity and activity compared with oxytocin” value is “enhanced selectivity and activity”. For the same molecule, the Emax on OXTR (OT receptor) [4] was 74.1%.

On V1aR (V1a receptor) [2] (V1aR, relative to vasopressin), `CC[C@H](C)[C@@H]1NC(=O)[C@H](Cc2ccc(O)cc2)NC(=O)[C@@H](N)CSSC[C@@H](C(=O)N2CCC[C@H]2C(=O)N[C@@H](CC(C)C)C(=O)NCC(N)=O)NC(=O)[C@H](CC(N)=O)NC(=O)[C@H](CCC(N)=O)NC1=O` [Oxytocin, reference compound] displayed an Emax of 82%.
